Source: patent publication US10517854B2, “Dosing regiments of celgosivir for the treatment of dengue” (60 Degrees Pharmaceuticals, LLC, priority 2013, dated 2019)
Where two headings read alike, the source gives them in different places.

Assays:
DENV2 (TSV01 strain) = assay: Cell-based flaviviral immunodetection assay (CFI), DENV2; details: Dengue virus, DENV2, BHK-21, 48 h, DENV2, BHK21 cells
Experimental: BHK21 cells were seeded at 1.3×104 in 96-well plate and incubated overnight at 37° C. in 5% CO2 incubator. Confluent monolayer of BHK21 cells were infected with DENV2 (TSV01 strain) at an MOI (multiplicity of infection) 0.3 in the presence of various concentrations of test compounds and incubated for 1 hour at 37° C. in 5% CO2 incubator. Infected cells were incubated with test compounds for another 48 hours at 37° C. in 5A CO2. Cells were fixed with methanol and mouse monoclonal antibody 4G2 was used to detect DENV E protein, which was quantified using a secondary anti-mouse antibody conjugated with horseradish peroxidase (HRP). Absorbance was read at 450 nm and dose-response curve was plotted accordingly. The 50% effective concentration (EC50), that is, the concentration of the test compound that decreased the level of viral E protein production by 50%, was calculated by nonlinear regression analysis.

[1] = test system: DENV2 in THP-1 human monocytes; assay: ADE infection of human monocytes (THP-1), plaque assay; assay type: cell-based; details: Dengue virus, THP-1, DENV2 + 4G2 antibody, 48 hours, read-out: EC50, suppression of viral replication under ADE condition
Experimental: The activity of celgosivir in infected human monocytes, one of the primary circulating cell types infected by dengue virus, was examined, THP-1 cells were grown in RPMI-1640 maintenance medium containing 10% fetal calf serum and 1% Penicillin-streptomycin and cultured in 37° C. incubator supplemented with 5% CO2. For ADE infection in THP-1 cells, virus (DENV2, MOI-10) was mixed with sub-neutralizing concentration of humanized 4G2 monoclonal antibody (0.05 μg/0.5 ml) and allowed to incubate on ice for 1 hr in the serum free medium, to allow immune complex formations. The immune complex was then added on to THP-1 (1×10^5) cells per well in a 24 well plate and further incubated for 2 hours at 37° C. incubator. An excess unbound immune complex was then removed by spinning cells at 1000 rpm for 5 min and then cells were supplemented with complete growth maintenance medium. For drug testing in the ADE condition, cells were mock (untreated) or celgosivir-treated for 48 hours, and finally media supernatant was collected for plaque assay analysis.

[2] = Population PK in dengue fever patients (NONMEM, predicted NCA parameters); assay type: in vivo, human; details: 400 mg loading dose then 200 mg every 12 hours for 9 doses
Experimental: Population pharmacokinetic (PK) analysis of castanospermine plasma concentration data after administration of celgosivir was performed using the non-linear mixed effects modelling software NONMEM (version 7.2.0). (16) Pharmacokinetic parameters were estimated using the first order conditional estimation method (FOCE) with eta-epsilon interaction. Due to limited data during the input phase, first-order absorption/formation of castanospermine was assumed. Between-subject variability was assumed to be log-nomally distributed. Model development was guided by objective function value (OFV), precision of the parameter estimates, inspection of standard goodness of lit plots and scientific plausability. The emperical Bayes estimates from the final model were used to predict individual concentrations for a standard saturated sampling design (i.e., samples collected at 0, 0.25, 0.5, 1, 1.5, 2, 4, 6 and 12 hours post-dose)) after the first dose (400 mg) and dose 9 (day 5; 200 mg). […] The NCA parameter values were derived using the statistical analysis software R (version 3.0.1). (17) NCA parameters after dose 9 were only determined for subject who received this dose. […]

[3] = cited from earlier work
[4] = cited from earlier work; for AUCss / Cmin,ss / t1/2 / tmax: HIV-positive patients
[5] = cited from earlier work
[6] = radiolabeled castanospermine, PO or IV, within 24 hr
[7] = celgosivir 10 mg/day for 14 days
[8] = celgosivir 20 mg/day for 14 days
[9] = celgosivir 40 mg/day for 14 days
[10] = celgosivir 80 mg/day for 14 days
[11] = celgosivir 160 mg/day for 14 days
[12] = celgosivir 240 mg/day for 14 days
[13] = celgosivir 360 mg/day for 14 days
[14] = celgosivir 450 mg/day for 14 days

O[C@H]1[C@H](O)[C@@H](O)CN2CC[C@H](O)[C@H]12 [Castanospermine]
EC50 (DENV2 (TSV01 strain)): ~21 µM
EC50 [1]: 14 µM
variability in exposure between subjects [2]: small to moderate
mean Cmax in the portal vein ([3]; 400 mg/kg celgosivir PO): 105600 ng/mL
AUC 0-60 min ([3]; portal vein, 400 mg/kg celgosivir PO): 63900 ng·h/mL
route of excretion of radioactivity [3, 6]: majority of radioactivity was detected within urine
urinary radioactivity identified as castanospermine [3, 6]: more than 92%
AUCss [4, 7]: 1000 ng·h/mL
Cmin,ss [4, 7]: 8 ng/mL
t1/2 [4, 7]: 13 h
tmax [4, 7]: 0.7 h
AUCss [4, 8]: 1750 ng·h/mL
Cmin,ss [4, 8]: 11 ng/mL
t1/2 [4, 8]: 27 h
tmax [4, 8]: 1 h
AUCss [4, 9]: 3610 ng·h/mL
Cmin,ss [4, 9]: 23 ng/mL
t1/2 [4, 9]: 30 h
tmax [4, 9]: 1 h
AUCss [4, 10]: 6530 ng·h/mL
Cmin,ss [4, 10]: 29 ng/mL
t1/2 [4, 10]: 16 h
tmax [4, 10]: 0.3 h
AUCss [4, 11]: 13300 ng·h/mL
Cmin,ss [4, 11]: 70 ng/mL
t1/2 [4, 11]: 21 h
tmax [4, 11]: 0.8 h
AUCss [4, 12]: 21500 ng·h/mL
Cmin,ss [4, 12]: 110 ng/mL
t1/2 [4, 12]: 16 h
tmax [4, 12]: 0.6 h
AUCss [4, 13]: 32100 ng·h/mL
Cmin,ss [4, 13]: 179 ng/mL
t1/2 [4, 13]: 15 h
tmax [4, 13]: 0.7 h
AUCss [4, 14]: 39800 ng·h/mL
Cmin,ss [4, 14]: 191 ng/mL
t1/2 [4, 14]: 14 h
excretion and metabolites ([4]; humans): excreted unchanged in the urine, with no other metabolites detected
gastrointestinal effects ([5]; 2 g/kg, sucrose- and starch containing diets): severe diarrhea and high intestinal bacterial counts
GI toxicity ([5]; diet of proteins, vitamins and glucose without sucrose or complex carbohydrates): ameliorated
